# Assay results from US6429291B1, “Hyaluronan receptor protein” (priority 1994, dated 2002).
# Experiments:
# C3 fibroblasts = assay: Cell locomotion assay, timelapse image analysis of C3 fibroblasts; type: cell-based, murine
# Procedure: For motility experiments, 10^5 cells were subcultured into 25 cm^2 tissue culture flasks (Corning), and maintained for 12 h as above. The medium was then aspirated, cells were rinsed with Hanks Balanced Salt Solution (HBSS) (Gibco) and fresh, serum-free α-MEM containing 4.0 μg/ml transferrin (Gibco) and 2.0 μg/ml insulin (Sigma) (defined medium) was added to the flasks.
# Cell locomotion was recorded using a computerized timelapse analysis system (Image 1, Universal Imaging Corporation, Westchester, Pa.) that measures nuclear displacement. During the filming period, cells were maintained at 37° C. in defined-media at physiological pH.
# A 10 amino acid peptide corresponding to one of the HA binding domains of RHAMM, peptide^aa423-432 (Yang et al., 1993), was synthesised and added at various concentrations (0,0.1, 1.0, 5.0, 10.0 and 50.0 ng/ml) to 70% confluent C3 fibroblasts. Cell locomotion was monitored by image analysis for 2 h from the addition of the peptide. A scrambled peptide was used as control.
# RHAMM-GST fusion protein prepared and purified as described in (b) above was added at concentrations of 1 pg/ml, 1 ng/ml, 1 μg/ml and 1 mg/ml to 70% confluent C3 cultures and cell locomotion was monitored by image analysis for 2 h from protein addition as described in Example 5.
# For each experiment, 30 cells were tracked every 10 min for a 1 hr period.
# RHAMM-GST fusion protein, as described in (d) above, and deleted/mutated RHAMM-GST fusion protein, as described in (h) above were added at 5 ng/ml to subconfluent cultures of C3 cells and cell locomotion was monitored by image analysis for 2 h from protein addition as described in Example 5.
# [1] = HA binding transblot assay with biotinylated HA
# Procedure: For the HA-binding assay, cell lysates were separated on SDS-PAGE, transblotted onto nitrocellulose membranes, then blots were incubated with biotinylated HA instead of primary antibody (Yang et al., 1993). Streptavidin-peroxidase conjugate (Sigma) was used as a second antibody, and blots were processed as above.
# C3 cells [2] = assay: Cell cycle analysis by flow cytometry; type: cell-based, murine; settings: serum starved, then serum stimulated; 5 μg/ml GST-RHAMM
# Procedure: For cell cycle analysis, cells of the ras-transformed fibroblast cell line C3 were harvested and fixed with 70% ethanol. The fixed cells were denatured by 2N HCl containing 0.5% Triton X-100 at RT for 30 min and then neutralized by treatment with 0.1 M Na2B4O7, pH 8.5. Total DNA content was detected by propidium iodide staining. The stained cells were analyzed by flow cytometry using a Coulter Electronics Inc. EPICS 753 cell sorter and PARA1 cell cycle analysis software.
# C3 cells [3] = assay: Growth analysis (cell density assay); type: cell-based, murine
# Procedure: Cell density assay was carried out by seeding 5×10^4 cells in 60 mm dishes. Cells were cultured in DMEM supplemented with 10% FCS. At each point, cells were harvested by trypsinization and cell concentrations were determined by counting cells by trypan blue exclusion method.
# p34^cdc2 = assay: Western blot of p34^cdc2 protein expression; type: cell-based, murine
# Procedure: For Western blot analysis, C3 cells in 100 mm dishes were washed 2× in PBS and then lysed in 0.25 ml ice cold buffer containing 50 mM β-glycerophosphate (pH 7.3), 1% Nonidet p-40, 10 mM NaF, 1% aprotinin and 1 mM Sodium Vanadate. The lysates were centrifused at 30,000 g for 20 min at 4° C. Protein concentration was determined by Biorad protein assay kit. Proteins were resolved on 10% SDS-polyacrylamide gels and transferred to nitrocellulose membranes in a Tris-Cl buffer containing 25 mM Tris, 192 mM Glycine and 20% (v/v) methanol, pH 8.3 at 100V for 1 hour at 4° C. Filters were incubated with antibody to p34^cdc2 (1:5000 dilution of polyclonal rabbits antiserum raised against the C-terminal peptide (LDNQIKKM) (SEQ ID NO:58) of Human […] protein) and developed with horseradish peroxidase-conjugated goat antibody to rabbit immunoglobulin G (sigma). Blotting was visualized by enhanced chomilumineacence Western blotting system (Amersham) following manufacturer's instruction.
# cdc2 mRNA = cdc2 mRNA Northern blot, nuclear run-on and mRNA stability; type: cell-based, murine; settings: actinomycin D 20 μg/ml for stability
# Procedure: Total cellular RNA was extracted by a rapid RNA isolation method using Trizol reagent (GIBCO) as per manufacturer's instructions. For half-life measurements, transcription was inhibited by addition of 20 ug/ml actinomycin D. RNA was isolated at different times and analyzed for cdc2 gene expression. 20 ug of total cellular RNA was electrophoresed through 1% formamide-agarose gels and blotted onto Nytran membranes. The blots were prehybridized and probed with random primer 32p-labelled murine cdc2 cDNA (Paul Nurse). Loading of RNA was determined by probing with glyceraldehyde-3-phosphate dehyrogenase (GAPDH) cDNA. Autoradiography was done by Phosphoimager SF (Molecular Dynamics) using storage phosphor imaging.
# Nuclear run-on assay was performed using 32P-labelled RNA to probe filter-bound cdc2 and GAPDH single strand cDNA inserts. Quantification of transcription was determined by scanning phosphor images using Multiquant software program (Molecular Dynamics).
# C3 cells [4] = assay: Tumorigenicity of treated C3 cells injected subcutaneously; type: in vivo, syngeneic C3H/HeN mice
# Procedure: (§1) C3 cells were serum starved, then cultured in presence of serum and GST or GST-HM for 48-hours and released from the substratum in Hanks. For assessing the tumorigenicity of the treated cells, 3×10^5 viable cells were injected subcutaneously into the right hind leg of syngeneic C3H/HeN Mice. The mice were maintained for 6-8 weeks after which tumors were removed, weighed and pieces processed for histology using conventional paraffin embedding techniques. For experimental metastasis assays, 4×10^3 treated cells were injected into the tail vein of syngeneic C3H/HeN mice. The mice were maintained for 16-18 days, euthanased and their lungs were stained by Boulin solution (picric acid, formaldehyde and acetic acid [15:5.:1]), removed and metastatic foci were counted under dissecting microscope.
# C3 cells [5] = assay: Experimental metastasis assay of treated C3 cells (tail vein); type: in vivo, syngeneic C3H/HeN mice
# Procedure: as §1, with “For experimental metastasis assays, 4×10^3 treated cells were injected into the tail vein of syngeneic C3H/HeN mice.” left out
# [6] = treated cells that did form tumours
substance,measurement,setting,value
RHAMM-GST fusion protein: RHAMM II cDNA cloned into pGEX-2T and expressed as soluble glutathione S-transferase-RHAMM fusion protein,concentration at which cell locomotion was significantly inhibited,"C3 fibroblasts; 70% confluent C3, 2 h",≥ 1 ng/mL
same,effect on cell locomotion,"C3 fibroblasts; C3 fibroblasts, result in words",effective inhibitor of cell motility
same,reduction of locomotion,"C3 fibroblasts; at 1 ng/ml, p<0.0001",40%
same,reduction in locomotion,C3 fibroblasts; concentrations as low as 1 ng/ml,3.5 fold
same,binding to biotinylated HA,[1],showed binding to biotinylated HA
same,effect on cell cycle,C3 cells [2],arrested and accumulated in G2/M phase
same,effect on cell proliferation,C3 cells [3]; 5 μg/ml GST-RHAMM,decrease in cell proliferation
same,fate of treated cells,C3 cells [3]; RHAMM-treated C3 cells,proceeded to cell death
same,p34^cdc2 expression,p34^cdc2; 10 μg/ml,greatly reduced
same,effect on p34^cdc2 expression,p34^cdc2; range of concentrations,dose dependent inhibition
same,effect on cdc2 mRNA,cdc2 mRNA,degradation of cdc2 mRNA without alteration of transcription
same,"Tumorigenicity, Frequency",C3 cells [4]; C3 cells treated 48 hours before s.c. injection of 3 × 10^5 cells,2/4
same,"Tumorigenicity, Latency",C3 cells [4]; s.c. injection of 3 × 10^5 treated cells,22 days
same,"Tumorigenicity, Tumor size Day 25","C3 cells [4]; s.c. injection of 3 × 10^5 treated cells, Day 25",90 ± 0.7 mm²
same,latency compared to controls,C3 cells [4]; [6],increased
same,ultimate tumour size compared to controls,C3 cells [4]; [6],reduced
same,reduction of incidence of tumours,C3 cells [4]; treatment of C3 cells prior to inoculation,50%
same,"Expt. Metastases, Frequency",C3 cells [5]; i.v. injection of 4 × 10^5 treated cells,3/4
same,"Expt. Metastases, No.","C3 cells [5]; i.v. injection of 4 × 10^5 treated cells, lung foci",<10
same,metastatic capability of C3 cells,C3 cells [5]; pre-treatment of cells,greatly reduced the metastatic capability
